Test results as given in ChEMBL document CHEMBL1201862, “PubChem BioAssay data set” (2004).
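Cells were grown in 96-well plates and exposed to each compound for 48 hours at five concentrations; endpoints were interpolated linearly between bracketing concentrations, or set to the highest concentration if not reached. GI50: concentration for 50% inhibition of growth.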 Calls of active or inactive are those of the source. Rule as the data show it: active = GI50 up to about 1.1 µM and inactive = higher.

Legend:
Assay in all cases: DTP human tumour cell line panel, 48 h
HOP-92 = tested on: HOP-92
SR = tested on: SR
M14 = tested on: M14
OVCAR-5 = tested on: OVCAR-5
SK-MEL-28 = tested on: SK-MEL-28
SNB-19 = tested on: SNB-19
SK-MEL-5 = tested on: SK-MEL-5
U-251 = tested on: U-251
CCRF-CEM = tested on: CCRF-CEM
NCI-H226 = tested on: NCI-H226
HCT-116 = tested on: HCT-116
786-0 = tested on: 786-0
CAKI-1 = tested on: CAKI-1
RXF 393 = tested on: RXF 393
HT-29 = tested on: HT-29
UACC-257 = tested on: UACC-257
NCI-H522 = tested on: NCI-H522
PC-3 = tested on: PC-3
NCI/ADR-RES = tested on: NCI/ADR-RES

Measured: GI50

N#CC(C(=O)C(=O)Nc1ccc(Cl)c(Cl)c1)c1ccc(Cl)cc1 (stereo unspecified)
inactive: HOP-92 36.4 µM | SR 51.9 µM | M14 > 100 µM | OVCAR-5 > 100 µM | SK-MEL-28 > 100 µM | SNB-19 65.5 µM | SK-MEL-5 74.8 µM | U-251 40.8 µM | CCRF-CEM 48.1 µM | NCI-H226 > 100 µM | HCT-116 23.6 µM | 786-0 41 µM | CAKI-1 > 100 µM | RXF 393 > 100 µM | HT-29 69.2 µM | UACC-257 > 100 µM | NCI-H522 25.2 µM

O=c1oc2c3ccc4ccccc4c3n(CCN3CCCCC3)c2c2ccccc12
inactive: HOP-92 > 100 µM | SR 3.21 µM | M14 20 µM | OVCAR-5 > 100 µM | SK-MEL-28 > 71.6 µM | SNB-19 28.8 µM | SK-MEL-5 40.7 µM | U-251 17.7 µM | CCRF-CEM 9.35 µM | HCT-116 31.8 µM | 786-0 10.3 µM | CAKI-1 48.2 µM | RXF 393 14.8 µM | HT-29 10.1 µM | UACC-257 > 62.5 µM | NCI-H522 17.9 µM

CCCCCCCCCOC(=S)NCCCCC
inactive: HOP-92 20.7 µM | SR 20.5 µM | M14 28.6 µM | SK-MEL-28 38.7 µM | SNB-19 35.1 µM | SK-MEL-5 21.5 µM | U-251 21.7 µM | CCRF-CEM 22.9 µM | HCT-116 22.2 µM | 786-0 35.6 µM | CAKI-1 27.8 µM | RXF 393 19.9 µM | HT-29 26.8 µM | UACC-257 24.8 µM | NCI-H522 20.3 µM

CN(C)CC1CCCC/C1=N/OC(=O)c1ccc(Cl)cc1 (stereo unspecified)
inactive: HOP-92 > 100 µM | SR > 100 µM | M14 > 100 µM | OVCAR-5 > 100 µM | SK-MEL-28 > 100 µM | U-251 > 100 µM | CCRF-CEM > 100 µM | NCI-H226 > 100 µM | HCT-116 > 100 µM | 786-0 > 100 µM | CAKI-1 > 100 µM | RXF 393 > 100 µM | HT-29 > 100 µM | UACC-257 > 100 µM | NCI-H522 > 100 µM

O=c1cccccc1NCCCCCCCNc1cccccc1=O
inactive: HOP-92 41.6 µM | SR 22.1 µM | M14 23 µM | OVCAR-5 77.1 µM | SNB-19 33.7 µM | U-251 > 10 µM | CCRF-CEM 13.4 µM | NCI-H226 34.5 µM | HCT-116 37.2 µM | 786-0 > 100 µM | CAKI-1 45.6 µM | RXF 393 7.74 µM | HT-29 55.5 µM | UACC-257 16.4 µM | NCI-H522 13.8 µM

COc1ccc(O)c(/C=N/CCC/N=C/c2cc(OC)ccc2O)c1
inactive: HOP-92 20.2 µM | SR 14 µM | M14 37.2 µM | OVCAR-5 38.3 µM | PC-3 24.5 µM | SK-MEL-28 46.2 µM | SNB-19 21.6 µM | U-251 16.7 µM | CCRF-CEM 3.8 µM | NCI-H226 27.4 µM | HCT-116 40.8 µM | 786-0 33.7 µM | RXF 393 25.6 µM | HT-29 37.5 µM | UACC-257 23.7 µM | NCI-H522 46 µM

Cc1cc(Cl)ccc1NC(=O)/C(CC(=O)CC(c1ccccc1)c1c(O)c2ccccc2oc1=O)=N\O (stereo unspecified)
inactive: HOP-92 39.2 µM | M14 > 100 µM | OVCAR-5 > 100 µM | PC-3 > 100 µM | SK-MEL-28 > 100 µM | SNB-19 > 100 µM | SK-MEL-5 > 100 µM | U-251 > 100 µM | CCRF-CEM 7.87 µM | NCI-H226 > 100 µM | HCT-116 > 100 µM | 786-0 > 100 µM | CAKI-1 > 100 µM | RXF 393 > 100 µM | HT-29 > 100 µM | UACC-257 > 100 µM | NCI/ADR-RES > 100 µM | NCI-H522 > 100 µM

CC(C)c1cccc(C(C)C)c1NC(=O)C(=O)C1SC(=S)NC1=O (stereo unspecified)
inactive: HOP-92 > 100 µM | SR > 100 µM | M14 > 100 µM | OVCAR-5 > 100 µM | SK-MEL-28 > 100 µM | SNB-19 > 100 µM | SK-MEL-5 > 100 µM | U-251 > 100 µM | CCRF-CEM > 100 µM | NCI-H226 > 100 µM | HCT-116 > 100 µM | 786-0 > 100 µM | CAKI-1 > 100 µM | RXF 393 > 100 µM | HT-29 > 100 µM | UACC-257 > 100 µM | NCI-H522 > 100 µM

Cn1c(=O)c2nc(-c3ccc(Cl)cc3)oc2n(C)c1=O
inactive: HOP-92 > 100 µM | SR > 100 µM | M14 > 100 µM | OVCAR-5 > 100 µM | SK-MEL-28 > 100 µM | SNB-19 > 100 µM | SK-MEL-5 > 100 µM | U-251 > 100 µM | CCRF-CEM > 100 µM | NCI-H226 > 100 µM | HCT-116 > 100 µM | 786-0 > 100 µM | CAKI-1 > 100 µM | RXF 393 > 100 µM | HT-29 > 100 µM | UACC-257 > 100 µM | NCI-H522 > 100 µM
